Values of other authors, collected in publication PMC9284491 (Nature Communications, 2022).

Experiments:
ER = target: T1, ER (Homo sapiens, UniProt P03372); conditions: maximum 500 mg dose; cited from earlier work
T1 sequence (P03372 1-595): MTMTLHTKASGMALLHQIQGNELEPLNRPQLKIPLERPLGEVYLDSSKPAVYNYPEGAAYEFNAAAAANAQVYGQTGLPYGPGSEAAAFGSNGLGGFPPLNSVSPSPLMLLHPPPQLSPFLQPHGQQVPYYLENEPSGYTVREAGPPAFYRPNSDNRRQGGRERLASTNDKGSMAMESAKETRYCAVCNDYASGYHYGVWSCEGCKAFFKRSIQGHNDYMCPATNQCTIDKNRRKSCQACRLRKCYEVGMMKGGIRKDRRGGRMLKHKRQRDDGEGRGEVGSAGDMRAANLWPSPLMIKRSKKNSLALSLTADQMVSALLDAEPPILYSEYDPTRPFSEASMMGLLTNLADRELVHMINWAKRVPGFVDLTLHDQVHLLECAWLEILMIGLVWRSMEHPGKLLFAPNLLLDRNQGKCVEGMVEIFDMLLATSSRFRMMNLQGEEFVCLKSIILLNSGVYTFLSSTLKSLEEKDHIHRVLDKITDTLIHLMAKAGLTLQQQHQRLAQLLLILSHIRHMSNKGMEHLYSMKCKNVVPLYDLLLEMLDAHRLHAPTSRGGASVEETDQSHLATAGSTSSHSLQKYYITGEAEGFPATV

[1] = 500 mg intramuscular (day 1, day 14 of cycle 1, monthly from cycle 2); cited from earlier work

For `C[C@]12CC[C@@H]3c4ccc(O)cc4C[C@@H](CCCCCCCCC[S+]([O-])CCCC(F)(F)C(F)(F)F)[C@H]3[C@@H]1CC[C@@H]2O` (some centres unmarked) [fulvestrant], which “ER occupancy at maximum dose” value (ER) is on record?
The value was “does not fully occupy the ER”.

And the “Ctrough at steady state” value [1]?
Its value is 12.5 ng/mL.
